Data on five molecules can be found in patent publication EP2518500A1, “In vitro method for determining developmental toxicity of a compound” (priority 2011, dated 2012).

Data set [1] deals with si:rp71-39b20.7. Description: Microarray gene expression in zebrafish embryos exposed to compound, si:rp71-39b20.7. As to conditions: 24 hpf; embryos exposed at BMCGMS20 (PAA equimolar to MAA and EAA); relative to DMSO-exposed control; negative = downregulation, positive = upregulation.
Data set [2] has as its system zebrafish embryos. Briefly: Method of the invention: developmental toxicity from expression of the 4 genes in exposed zebrafish embryos. To be noted: for fold ratio (FR) (either up- or downregulated): all 4 genes (cyp26a1, si:rp71-39b20.7, vmhc, hspb12), 24 hpf microarray, compound versus DMSO control.
Data set [3] deals with zebrafish embryos. To be noted: concentration range, three independent runs, evaluated at 72 hpf; previous study [11]; cited from earlier work.
Data set [4] deals with cyp26a1. Description: Microarray gene expression in zebrafish embryos exposed to compound, cyp26a1. To be noted: 24 hpf; embryos exposed at BMCGMS20 (PAA equimolar to MAA and EAA); relative to DMSO-exposed control; negative = downregulation, positive = upregulation.
For data set [5], the system named is hspb12. Description: Microarray gene expression in zebrafish embryos exposed to compound, hspb12. To be noted: 24 hpf; embryos exposed at BMCGMS20 (PAA equimolar to MAA and EAA); relative to DMSO-exposed control; negative = downregulation, positive = upregulation.
The test system of data set [6] is vmhc. Description: Microarray gene expression in zebrafish embryos exposed to compound, vmhc. As to conditions: 24 hpf; embryos exposed at BMCGMS20 (PAA equimolar to MAA and EAA); relative to DMSO-exposed control; negative = downregulation, positive = upregulation.
Data set [7] relates to si:rp71-39b20.7. As to conditions: zebrafish (Danio rerio), in vivo, 24 hpf.
Data set [8] deals with zebrafish embryos. As to conditions: zebrafish (Danio rerio), in vivo, 24 hpf.
For data set [9], the system named is hspb12. To be noted: zebrafish (Danio rerio), in vivo, 24 hpf.
Data set [10] relates to cyp26a1. As to conditions: zebrafish (Danio rerio), in vivo, 24 hpf.
The test system of data set [11] is vmhc. As to conditions: zebrafish (Danio rerio), in vivo, 24 hpf.

Where two headings read alike, the source gives them in different places.

On to `O=C(O)COc1ccccc1` [PAA, phenoxyacetic acid], for which the “Fold ratio (FR) si:rp71-39b20.7” value with si:rp71-39b20.7 [1] was -1.098. For the same molecule, the “fold ratio (FR) (either up- or downregulated)” value with zebrafish embryos [2] is reported as less than 1.2. The “developmental toxicity classification in the method according to the invention” value in the data set on zebrafish embryos [2] (gene expression in zebrafish embryos, 24 hours after fertilization) is reported as “non-developmentally toxic”. Besides, the “effects in the ZET (GMS)” value in the data set with zebrafish embryos [3] was “no effects”. For the same molecule, in the data set on cyp26a1 [4], the “Fold ratio (FR) cyp26a1” value is listed as -1.009. Also, the “Fold ratio (FR) hspb12” value in the data set on hspb12 [5] was -1.135. Also, in the data set with vmhc [6], the “Fold ratio (FR) vmhc” value is given as -1.102.

Consider `CCOCC(=O)O` [EAA, ethoxyacetic acid], for which the “Fold ratio (FR) si:rp71-39b20.7” value in the data set with si:rp71-39b20.7 [1] was -2.183. Besides, the “fold ratio (FR) (either up- or downregulated)” value with zebrafish embryos [2] is reported as greater than 1.5. In addition, the “Fold ratio (FR) cyp26a1” value in the data set on cyp26a1 [4] was determined as 2.648. Also, the “Fold ratio (FR) hspb12” value in the data set with hspb12 [5] is given as -16.913. Further, in the data set with vmhc [6], the “Fold ratio (FR) vmhc” value is recorded as -4.629.

Regarding `C[Si](Cn1cncn1)(c1ccc(F)cc1)c1ccc(F)cc1` [FLU, flusilazole], the “Fold ratio (FR) si:rp71-39b20.7” value with si:rp71-39b20.7 [1] is recorded as -1.514. In the data set with zebrafish embryos [2], the “fold ratio (FR) (either up- or downregulated)” value is greater than 1.5. Further, in the data set with cyp26a1 [4], the “Fold ratio (FR) cyp26a1” value was 3.452. The “Fold ratio (FR) hspb12” value with hspb12 [5] is on record as -2.182. For the same molecule, in the data set with vmhc [6], the “Fold ratio (FR) vmhc” value is given as -1.784.

As to `CC(C1CC1)C(O)(Cn1cncn1)c1ccc(Cl)cc1` (stereo not drawn) [CYP, cyproconazole], the “Fold ratio (FR) si:rp71-39b20.7” value with si:rp71-39b20.7 [1] is listed as -1.544. The “fold ratio (FR) (either up- or downregulated)” value with zebrafish embryos [2] is reported as greater than 1.5. Also, in the data set with cyp26a1 [4], the “Fold ratio (FR) cyp26a1” value is on record as 3.745. Besides, the “Fold ratio (FR) hspb12” value in the data set with hspb12 [5] is listed as -1.531. Moreover, the “Fold ratio (FR) vmhc” value with vmhc [6] was -1.759.

Turning to `COCC(=O)O` [MAA, methoxyacetic acid], in the data set on si:rp71-39b20.7 [7], the “Fold ratio (FR) si:rp71-39b20.7” value is given as -1.996. Besides, the “fold ratio (FR) (either up- or downregulated)” value with zebrafish embryos [8] is listed as greater than 1.5. In addition, the “Fold ratio (FR) hspb12” value in the data set on hspb12 [9] was -3.449. In addition, the “Fold ratio (FR) cyp26a1” value with cyp26a1 [10] came to 1.722. The “Fold ratio (FR) vmhc” value in the data set with vmhc [11] was -2.946.
